The values that follow come from patent publication US9938258B2 (Karyopharm Therapeutics Inc., priority 2012, dated 2018).

Where two headings read alike, the source gives them in different places.

For one assay, the system named is MS751 cells. The experiment in a line: MTT cell proliferation assay, MS751. The format is cell-based, human. Conditions: read-out: MTT Assay IC50, MS751. Here is the method:
(§1) The MTT cell proliferation assay was used to study the cytotoxic properties of the compounds. The assay was performed according to the method described by Roche Molecular Biochemicals, with minor modifications. The assay is based on the cleavage of the tetrazolium salt, MTT, in the presence of an electron-coupling reagent. The water-insoluble formazan salt produced must be solubilized in an additional step. Cells grown in a 96-well tissue culture plate were incubated with the MTT solution for approximately 4 hours. After this incubation period, a water-insoluble formazan dye formed. After solubilization, the formazan dye was quantitated using a scanning multi-well spectrophotometer (ELISA reader). […] The cells were seeded at 5,000-10,000 cells in each well of 96-well plate in 100 μL of fresh culture medium and were allowed to attach overnight. The stock solutions of the compounds were diluted in 100 μL cell culture medium to obtain eight concentrations of each test compound, ranging from 1 nM to 30 μM. […] All optical densities were measured at 490 nm using a Vmax Kinetic Microplate Reader (Molecular Devices). In most cases, the assay was performed in duplicate and the results were presented as a mean percent inhibition to the negative control±SE. The following formula was used to calculate the percent of inhibition: Inhibition (%)=(1-(ODo/OD)) ×100.
(§2) The compounds were tested against MS751, Z138 and 3T3 cells. The MS751 cell line is derived from a metastasis to lymph node of human cervix from a patient diagnosed with squameous cell carcinoma of the cervix. The Z138 cell line is a mature B-cell acute lymphoblastic leukemia cell line derived from a patient with chronic lumphocytic leukemia. 3T3 cells are standard fibroblast cells; they were originally isolated from Swiss mouse embryo tissue.
A general note: Tetrazolium assays rely on reduction of a dye to a coloured formazan, in cell work by metabolically active cells.

Another assay relates to Z138 cells. Description: MTT cell proliferation assay, Z138. In kind it is cell-based. Conditions: Homo sapiens, Z-138, Z138 cells, read-out: MTT Assay IC50, Z138. Here is the method: as §1, §2
The next assay deals with 3T3 cells. Description: MTT cell proliferation assay, 3T3. The format is cell-based, mouse. Conditions: read-out: MTT Assay IC50, 3T3. Here is the method:
as §1, §2

Setting [1] is: approximately 64-72 hours incubation.
Setting [2] is: Homo sapiens, MS751, MS751 cells, approximately 64-72 hours incubation.
Where [3] appears, read: Mus musculus, NIH3T3, 3T3 cells, approximately 64-72 hours incubation.
Setting [4] is: Homo sapiens, MS751, MS751 cells, eight concentrations 1 nM to 30 μM, incubation approximately 64-72 hours.
[5] abbreviates: eight concentrations 1 nM to 30 μM, incubation approximately 64-72 hours.
The mark [6] stands for this setting: Mus musculus, NIH3T3, 3T3 cells, eight concentrations 1 nM to 30 μM, incubation approximately 64-72 hours.

`CC(=O)c1ccc(-c2cc(Cl)c3c(c2)CC(CNC(=O)/C=C\c2cccnc2)O3)s1` (single isomer, unassigned) [Compound 312, (Z)-N-((5-(5-acetylthiophen-2-yl)-7-chloro-2,3-dihydrobenzofuran-2-yl)methyl)-3-(pyridin-3-yl)acrylamide]: the IC50 – broadly, the point on the concentration scale where inhibition reaches its midpoint – in the assay with MS751 cells (MS751 cells, approximately 64-72 hours incubation) was 5 to 30 µM; in the assay on Z138 cells (setting [1]) it was 0.1 to 5 µM; with 3T3 cells (3T3 cells, approximately 64-72 hours incubation), 5 to 30 µM.
As to `Nc1ccc(CNC(=O)/C=C/C2Cc3c(-c4ccc(C(=O)N5CC(F)C5)cc4)ccc(Cl)c3O2)cn1` (stereo not drawn) [Compound 352, (E)-N-((6-aminopyridin-3-yl)methyl)-3-(7-chloro-4-(4-(3-fluoroazetidine-1-carbonyl)phenyl)-2,3-dihydrobenzofuran-2-yl)acrylamide], the IC50 is 0.1 to 5 µM with MS751 cells (setting [2]), over 30 µM in the assay on Z138 cells (setting [1]) and 5 to 30 µM with 3T3 cells (setting [3]).
`CC(=O)c1ccc(-c2cc(Cl)c3c(c2)CC(CNC(=O)/C=C/c2ccccc2)O3)s1` (stereo not drawn) [Compound 38, N-((5-(5-acetylthiophen-2-yl)-7-chloro-2,3-dihydrobenzofuran-2-yl)methyl)cinnamamide]: the IC50 with MS751 cells (setting [4]), in the assay on Z138 cells (setting [5]) and in the assay on 3T3 cells (setting [6]) was over 30 µM throughout.
For `CC(=O)c1ccc(-c2cc(Cl)c3c(c2)CC(CNC(=O)/C=C/c2ccc(Cl)nc2)O3)s1` (stereo not drawn) [Compound 45, (E)-N-((5-(5-acetylthiophen-2-yl)-7-chloro-2,3-dihydrobenzofuran-2-yl)methyl)-3-(6-chloropyridin-3-yl)acrylamide], the half-inhibitory concentration (IC50) in the assay with MS751 cells (setting [4]), with Z138 cells (setting [5]) and with 3T3 cells (setting [6]) was over 30 µM throughout.
Take `CC(=O)c1ccc(-c2cc(Cl)c3c(c2)CC(CNC(=O)/C=C/c2ccccn2)O3)s1` (stereo not drawn) [Compound 103, (E)-N-((5-(5-acetylthiophen-2-yl)-7-chloro-2,3-dihydrobenzofuran-2-yl)methyl)-3-(pyridin-2-yl)acrylamide]: the IC50 with MS751 cells (setting [4]), with Z138 cells (setting [5]) and in the assay with 3T3 cells (setting [6]) was over 30 µM in each case.
For the compound `Nc1ccc(/C=C/C(=O)NCC2Cc3c(-c4ccc(C(=O)N5CCOCC5)cc4F)ccc(Cl)c3O2)cn1` (stereo not drawn) [Compound 911, (E)-3-(6-aminopyridin-3-yl)-N-((7-chloro-4-(2-fluoro-4-(morpholine-4-carbonyl)phenyl)-2,3-dihydrobenzofuran-2-yl)methyl)acrylamide], the values for the IC50 in the assay with MS751 cells (setting [2]), in the assay on Z138 cells (setting [1]) and in the assay on 3T3 cells (setting [3]) were under 0.1 µM, under 0.1 µM and 0.1 to 5 µM, respectively.
Consider `CC(=O)c1ccc(-c2cc(Cl)c3c(c2)CC(CNC(=O)/C=C/c2ccc(N)nc2C)O3)s1` (stereo not drawn) [Compound 118, (E)-N-((5-(5-acetylthiophen-2-yl)-7-chloro-2,3-dihydrobenzofuran-2-yl)methyl)-3-(6-amino-2-methylpyridin-3-yl)acrylamide], for which the values for the IC50 in the assay on MS751 cells (setting [4]), in the assay with Z138 cells (setting [5]) and in the assay on 3T3 cells (setting [6]) were 5 to 30 µM, 0.1 to 5 µM and 5 to 30 µM, respectively.
`Nc1ccc(/C=C/C(=O)NCC2Cc3cc(-c4ncc(C(=O)N5CCOCC5)cn4)cc(Cl)c3O2)cn1` (stereo not drawn) [Compound 330, (E)-3-(6-Aminopyridin-3-yl)-N-((7-chloro-5-(5-(morpholine-4-carbonyl)pyrimidin-2-yl)-2,3-dihydrobenzofuran-2-yl)methyl)acrylamide]: the IC50 was under 0.1 µM in the assay with MS751 cells (setting [2]), under 0.1 µM in the assay on Z138 cells (setting [1]) and 5 to 30 µM in the assay with 3T3 cells (setting [3]).
For `Nc1ccc(/C=C/C(=O)NCC2Cc3cc(-c4ccc(C(=O)N5CCOCC5)c(F)c4F)cc(Cl)c3O2)cn1` (stereo not drawn) [Compound 901, (E)-3-(6-aminopyridin-3-yl)-N-((7-chloro-5-(2,3-difluoro-4-(morpholine-4-carbonyl)phenyl)-2,3-dihydrobenzofuran-2-yl)methyl)acrylamide], the values for the IC50 in the assay on MS751 cells (setting [2]), in the assay with Z138 cells (setting [1]) and in the assay with 3T3 cells (setting [3]) were under 0.1 µM, under 0.1 µM and 0.1 to 5 µM, respectively.
In the case of `CC(=O)c1ccc(-c2cc(Cl)c3c(c2)CC(CNC(=O)/C=C/c2ccc(C)o2)O3)s1` (stereo not drawn) [Compound 150, (E)-N-((5-(5-acetylthiophen-2-yl)-7-chloro-2,3-dihydrobenzofuran-2-yl)methyl)-3-(5-methylfuran-2-yl)acrylamide], the IC50 with MS751 cells (setting [4]), with Z138 cells (setting [5]) and in the assay on 3T3 cells (setting [6]) was over 30 µM in each case.
With `CC(=O)c1ccc(-c2cc(Cl)c3c(c2)CC(CNC(=O)/C=C/c2cc(C)n(-c4cc(C)on4)c2C)O3)s1` (stereo not drawn) [Compound 288, (E)-N-((5-(5-acetylthiophen-2-yl)-7-chloro-2,3-dihydrobenzofuran-2-yl)methyl)-3-(2,5-dimethyl-1-(5-methylisoxazol-3-yl)-1H-pyrrol-3-yl)acrylamide], the IC50 with MS751 cells (setting [2]), in the assay with Z138 cells (setting [1]) and in the assay with 3T3 cells (setting [3]) was over 30 µM each time.
Consider `Nc1ccc(/C=C/C(=O)NCC2Cc3c(-c4ccc(C(=O)N5CCOCC5)cn4)ccc(Cl)c3O2)cn1` (stereo not drawn) [Compound 912, (E)-3-(6-aminopyridin-3-yl)-N-((7-chloro-4-(5-(morpholine-4-carbonyl)pyridin-2-yl)-2,3-dihydrobenzofuran-2-yl)methyl)acrylamide], for which the IC50 with MS751 cells (setting [2]) is 0.1 to 5 µM; in the assay on Z138 cells (setting [1]), under 0.1 µM; in the assay with 3T3 cells (setting [3]) it was 0.1 to 5 µM.
As to `CC(C)(C)c1ccc(-c2ccc(C(=O)N3CCOCC3)cc2)c2c1OC(CNC(=O)/C=C/c1ccc(N)nc1)C2` (stereo not drawn) [Compound 355, (E)-3-(6-aminopyridin-3-yl)-N-((7-(tert-butyl)-4-(4-(morpholine-4-carbonyl)phenyl)-2,3-dihydrobenzofuran-2-yl)methyl)acrylamide], the concentration for half-maximal inhibition (IC50) with MS751 cells (setting [2]) was over 30 µM; with Z138 cells (setting [1]) it was over 30 µM; in the assay with 3T3 cells (setting [3]) it was 0.1 to 5 µM.
For the compound `CC(=O)c1ccc(-c2cc(Cl)c3c(c2)CC(CNC(=O)/C=C/c2cc[nH]c2)O3)s1` (stereo not drawn) [Compound 153, (E)-N-((5-(5-acetylthiophen-2-yl)-7-chloro-2,3-dihydrobenzofuran-2-yl)methyl)-3-(1H-pyrrol-3-yl)acrylamide], the IC50 in the assay on MS751 cells (setting [4]), in the assay on Z138 cells (setting [5]) and in the assay with 3T3 cells (setting [6]) was over 30 µM each time.
As to `CC(=O)c1ccc(-c2cc(Cl)c3c(c2)CC(CNC(=O)/C=C/c2csc(C)n2)O3)s1` (stereo not drawn) [Compound 159, (E)-N-((5-(5-acetylthiophen-2-yl)-7-chloro-2,3-dihydrobenzofuran-2-yl)methyl)-3-(2-methylthiazol-4-yl)acrylamide], the IC50 with MS751 cells (setting [4]), with Z138 cells (setting [5]) and with 3T3 cells (setting [6]) was over 30 µM each time.
As to `CCOC(=O)CCOCCOCCC(=O)N1CCN(C(=O)c2ccc(-c3cc(Cl)c4c(c3)CC(CNC(=O)/C=C/c3ccc(N)nc3)O4)cc2)CC1` (stereo not drawn) [Compound 354, (E)-ethyl 3-(2-(3-(4-(4-(2-((3-(6-aminopyridin-3-yl)acrylamido)methyl)-7-chloro-2,3-dihydrobenzofuran-5-yl)benzoyl)piperazin-1-yl)-3-oxopropoxy)ethoxy)propanoate], the IC50 was under 0.1 µM in the assay with MS751 cells (setting [2]), 5 to 30 µM with Z138 cells (setting [1]) and under 0.1 µM in the assay on 3T3 cells (setting [3]).
As for `CC(OC(=O)CCCC[C@@H]1SC[C@@H]2NC(=O)N[C@@H]21)c1ccc(-c2cc(Cl)c3c(c2)CC(CNC(=O)/C=C/c2cccnc2)O3)s1` (stereo partly drawn) [Compound 162, 1-(5-(7-chloro-2-(((E)-3-(pyridin-3-yl)acrylamido)methyl)-2,3-dihydrobenzofuran-5-yl)thiophen-2-yl)ethyl 5-((3aS,4S,6aR)-2-oxohexahydro-1H-thieno[3,4-d]imidazol-4-yl)pentanoate], the IC50 was under 0.1 µM in the assay with MS751 cells (setting [4]), under 0.1 µM with Z138 cells (setting [5]) and 0.1 to 5 µM with 3T3 cells (setting [6]).
Take `CC(=O)c1ccc(-c2cc(Cl)c3c(c2)CC(CNC(=O)/C=C/c2csc(-c4ccc(F)cc4)n2)O3)s1` (stereo not drawn) [Compound 206, (E)-N-((5-(5-acetylthiophen-2-yl)-7-chloro-2,3-dihydrobenzofuran-2-yl)methyl)-3-(2-(4-fluorophenyl)thiazol-4-yl)acrylamide]: the IC50 in the assay with MS751 cells (setting [2]), in the assay on Z138 cells (setting [1]) and in the assay with 3T3 cells (setting [3]) was over 30 µM in each case.
Regarding `CC(=O)c1ccc(-c2cc(Cl)c3c(c2)CC(CNC(=O)/C=C/c2ncc[nH]2)O3)s1` (stereo not drawn) [Compound 278, (E)-N-((5-(5-acetylthiophen-2-yl)-7-chloro-2,3-dihydrobenzofuran-2-yl)methyl)-3-(1H-imidazol-2-yl)acrylamide], the half-maximal inhibitory concentration (IC50) in the assay with MS751 cells (setting [4]), in the assay with Z138 cells (setting [5]) and in the assay with 3T3 cells (setting [6]) was over 30 µM each time.
